How the values were obtained:
[1] = system: CYP1A1 mRNA; experiment: Summary of CYP1A1 gene expression in human hepatic and intestinal cells; assay type: cell-based; conditions: Table 1 summary class; CYP1A1
Description: Figure 4 Effects of MICT on the induction of CYP1A1 mRNA in human hepatic and intestinal cells. Cultured cells were incubated for 24 h with the vehicle (DMSO; 0.1% v/v) and tested MICT in the presence or absence of TCDD (10 nM). RT-PCR determined the level of CYP1A1 mRNA, and the data were normalized per GAPDH mRNA level. […] (A,B) Experiments in three consecutive passages of human colon adenocarcinoma cell line LS180 in the absence (A) and the presence (B) of 10 nM TCDD. The bar graphs show the percentage of maximal induction attained by TCDD and are expressed as the mean ± SD. (C) Experiments in three consecutive passages of wild-type (AhR^+/^+) and AhR-knockout (AhR^−/^−) HT-29 cells. […] (D) Primary human hepatocytes from three different donors (LH79, Hep2201020, and Hep2201021).
Total RNA was isolated using TRI Reagent® (Sigma Aldrich, Prague, Czech Republic). cDNA was synthesized using M-MuLV reverse transcriptase (New England Biolabs, Ipswich, MA, USA). The reverse transcription was performed at 42 °C for 60 min using Random Primers 6 (New England Biolabs, Ipswich, MA, USA) and diluted in a 1:4 ratio by PCR-grade water. The quantitative reverse transcriptase-polymerase chain reaction (qRT-PCR) was performed on the Lightcycler 480 II using the LightCycler ® 480 Probes Master (Roche Diagnostic Corporation, Prague, Czech Republic). The levels of CYP1A1 and GAPDH mRNAs were determined using the Universal Probe Library probes (UPL; Roche Diagnostic Corporation, Prague, Czech Republic) in combination with specific primers, using a protocol described elsewhere. All measurements were performed in triplicates, and the gene expression was normalized to glyceraldehyde-3-phosphate dehydrogenase (GAPDH) as a house-keeping gene. The data were processed using the delta-delta Ct method and expressed as a fold induction over the negative control (DMSO) or as a percentage of the positive control (maximal induction by TCDD).

[2] = target: T1, AhR (Homo sapiens, UniProt P35869); experiment: Summary of AhR cell functions (translocation; heterodimerization; DNA-binding) in LS180 cells; assay type: cell-based; parameters: 0.1% V/V), TCDD (10 nM), and test MICT; host or cells: LS180 cells; conditions: Table 1 summary class
T1 sequence (P35869 11-848): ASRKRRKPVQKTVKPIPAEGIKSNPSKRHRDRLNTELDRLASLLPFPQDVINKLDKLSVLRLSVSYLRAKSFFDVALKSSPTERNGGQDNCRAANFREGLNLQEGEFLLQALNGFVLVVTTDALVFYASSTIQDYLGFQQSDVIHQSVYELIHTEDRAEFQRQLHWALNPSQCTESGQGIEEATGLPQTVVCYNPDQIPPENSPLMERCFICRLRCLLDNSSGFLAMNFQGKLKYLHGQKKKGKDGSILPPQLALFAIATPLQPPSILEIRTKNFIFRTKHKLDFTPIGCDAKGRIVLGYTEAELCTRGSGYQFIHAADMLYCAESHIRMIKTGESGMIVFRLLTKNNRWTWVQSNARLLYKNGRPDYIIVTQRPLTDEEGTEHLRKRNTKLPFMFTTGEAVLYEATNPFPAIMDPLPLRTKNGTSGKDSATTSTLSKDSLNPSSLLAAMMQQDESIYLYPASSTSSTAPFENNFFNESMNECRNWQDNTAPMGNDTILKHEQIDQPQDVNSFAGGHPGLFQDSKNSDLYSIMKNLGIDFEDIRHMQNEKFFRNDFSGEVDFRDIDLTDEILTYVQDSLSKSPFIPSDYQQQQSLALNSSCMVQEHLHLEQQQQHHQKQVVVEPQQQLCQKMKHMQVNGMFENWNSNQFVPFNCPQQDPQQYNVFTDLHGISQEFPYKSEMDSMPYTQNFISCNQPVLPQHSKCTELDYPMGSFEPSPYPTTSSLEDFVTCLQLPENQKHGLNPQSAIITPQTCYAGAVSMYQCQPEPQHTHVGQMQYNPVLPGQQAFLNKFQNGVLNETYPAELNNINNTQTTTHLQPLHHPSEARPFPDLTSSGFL
Description: LS180 cells (60,000 cells/well) were plated on 8-well chambered slides (94.6140.802, Sarstedt, Nümbrecht, Germany) and allowed to grow overnight. Then, the cells were incubated with DMSO (0.1% V/V), TCDD (10 nM), IND (1000 µM), IPY (200 µM), 3MI (200 µM), TA (200 µM), IAC (100 µM), and IAD (200 µM). The staining procedure was described in detail elsewhere. The images were captured using an IX73 fluorescence microscope (Olympus, Tokyo, Japan). The immunofluorescence signal intensity (of the AhR antibody) in the nucleus was evaluated visually. For percentage calculation, approximately 500 cells from at least four randomly selected fields of view in each specimen were used.
LS180 cells (4 million) were seeded in a 60-mm dish in Dulbecco’s modified Eagle’s medium (D6546; Sigma Aldrich). The following day, the cells were incubated with DMSO (0.1% V/V), TCDD (10 nM), IND (1000 µM), IPY (200 µM), 3MI (200 µM), TA (200 µM), IAC (100 µM), and IAD (200 µM) for 90 min at 37 °C. ChIP assay was performed as we described in detail elsewhere.
Intestinal LS180 cells were incubated with TCDD, tested MICT, and vehicle (DMSO; 0.1% V/V) for 90 min at 37 °C. The Pierce™ Co-Immunoprecipitation Kit (Thermo Fisher Scientific) with covalently coupled AhR antibody (mouse monoclonal, sc-133088, A-3, Santa Cruz Biotechnology) was used. Eluted protein complexes and total parental lysates were resolved on SDS-PAGE gels followed by Western Blot analysis and immuno-detection with ARNT-1 antibody (mouse monoclonal, sc-17812, G-3, Santa Cruz Biotechnology). Chemiluminescent detection was performed using horseradish peroxidase-conjugated anti-mouse secondary antibody (7076S, Cell Signaling Technology) and WesternSure® PREMIUM Chemiluminescent Substrate (LI-COR Biotechnology) by C-DiGit® Blot Scanner (LI-COR Biotechnology).

Row | Structure (SMILES) | Gene Expression [1] | AhR Cell Functions (Translocation); Heterodimerization; DNA-Binding [2]
1 | Cc1c[nH]c2ccccc12 [3MI, skatole] | strong inducer | highly active–all parameters
2 | O=Cc1c[nH]c2ccccc12 [IA, indole-3-aldehyde] | inactive | 
3 | O=C(O)/C=C/c1c[nH]c2ccccc12 [IAC, indole-3-acrylate] | strong inducer | highly active–all parameters
4 | NC(=O)Cc1c[nH]c2ccccc12 [IAD, indole-3-acetamide] | strong inducer | highly active–all parameters
5 | OCCc1c[nH]c2ccccc12 [IET, indole-3-ethanol] | inactive | 
6 | O=C(O)C(O)Cc1c[nH]c2ccccc12 (stereo not drawn) [ILA, indole-3-lactate] | inactive | 
7 | c1ccc2[nH]ccc2c1 [IND, indole] | strong inducer | highly active–all parameters
8 | O=C(O)C(=O)Cc1c[nH]c2ccccc12 [IPY, indole-3-pyruvate] | strong inducer | highly active–all parameters
9 | NCCc1c[nH]c2ccccc12 [TA, tryptamine] | strong inducer | highly active–all parameters
